Data published in US9145415B2, “Nitrogen-containing heterocyclic compound or salt thereof” (FUJIFILM Corporation, priority 2012, dated 2015).
Read-outs that look alike come from different tables or passages of the source.

Tests used:
[1] = target: T1, human FLT3 protein (FLT3 (WT)) (Homo sapiens, UniProt P36888); experiment: FLT3 inhibition test (FLT3 enzyme inhibition, time-resolved fluorescence of substrate peptide phosphorylation); format: biochemical; settings: read-out: FLT3 (WT) enzyme inhibition activity
T1 construct: human FLT3 protein (intracellular region, 564 to 993 aa); GST; purchased Carna Biosciences; host or cells: baculovirus expression system
T1 sequence (P36888 564-993): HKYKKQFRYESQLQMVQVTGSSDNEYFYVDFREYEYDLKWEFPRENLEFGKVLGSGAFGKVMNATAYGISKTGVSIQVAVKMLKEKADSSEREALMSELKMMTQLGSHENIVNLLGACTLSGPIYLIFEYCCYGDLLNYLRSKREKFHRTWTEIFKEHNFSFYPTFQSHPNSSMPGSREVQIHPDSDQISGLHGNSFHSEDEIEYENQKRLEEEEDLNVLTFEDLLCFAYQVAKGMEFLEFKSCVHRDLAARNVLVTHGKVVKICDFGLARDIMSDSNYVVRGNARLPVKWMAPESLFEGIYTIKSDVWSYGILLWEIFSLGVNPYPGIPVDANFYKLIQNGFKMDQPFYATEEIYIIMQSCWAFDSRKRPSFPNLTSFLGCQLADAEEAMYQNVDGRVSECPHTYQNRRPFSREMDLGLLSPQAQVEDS
Protocol: The FLT3 inhibition test was performed for the compounds of the present invention by the method described below.
A reaction mixture in a volume of 9 μL containing the FLT3 protein and a test compound of a predetermined concentration (1.2 μg of FLT3, 100 mM HEPES, 10 mM MgCl2, 25 mM NaCl, 0.01% BSA, 1 mM DTT, pH 7.5) was left standing at 25° C. for 15 minutes. […] (Toray Industries), and 3 μL (final concentration 50 μM) of ATP (Sigma-Aldrich) were added to the reaction mixture, and the mixture was shaken for 2 minutes, and then further left standing at 25° C. for 30 minutes to allow the enzymatic reaction.

MV4-11 cells = experiment: Leukemia cell proliferation inhibition test (ATPlite), MV4-11; format: cell-based; settings: Homo sapiens, read-out: MV4-11 cell proliferation inhibition effect
Protocol: (§1) A leukemia cell proliferation inhibition test was performed for the compounds of the present invention by using the leukemia cell strains MV4-11 (ATCC Number, CRL-9591) and Molm-13 (DSMZ Number, ACC554).
(§2) The leukemia cell proliferation inhibition test was performed by the method described below.
(§3) For the purpose of measuring proliferation inhibition attained with a compound, the total cell count was quantified on the basis of the total cellular ATP concentration using the ATPlite (PerkinElmer) reagent utilizing firefly luciferase. The Molm-13 or MV4-11 cells were added to the RPMI medium containing penicillin and streptomycin (penn/strep) and 10% FBS at a density of 2×10^5 cells/ml, and 50 μL (10,000 cells) of the cell suspension was inoculated to each well of a 96-well plate (Corning).
(§4) A serially diluted solution of a compound or 0.1% DMSO (solvent control) in a volume of 50 μL was added to the cells, and then the cells were cultured for 72 hours under the standard cell proliferation conditions (37° C., 5% CO2) to allow proliferation of the cells. In order to measure the proliferation of the total cells, equal volume of the ATPlite reaction mixture was added to each well in accordance with the instructions attached to ATPlite, and then luminescence count of the well was measured (relative light unit, RLU).
(§5) The RLU signal observed with the DMSO solvent control after 72 hours of the culture was defined as a signal indicating 0% inhibition, and the GI50 value for the proliferation inhibition corresponds to a concentration of a compound that provides 50% inhibition based on the proliferation of the total cells contained in the DMSO solvent control. Each data point was obtained from samples in duplicate. The GI50 values were calculated by the non-linear regression fitting (Fit Model (205)) according to a sigmoid dose-reaction equation using the XLfit software.

Molm-13 cells = experiment: Leukemia cell proliferation inhibition test (ATPlite), Molm-13; format: cell-based; settings: Homo sapiens, read-out: MOLM13 cell proliferation inhibition effect
Protocol: as §1, §2, §3, §4, §5

[2] = GST-fused human FLT3 (564 to 993 aa), ATP 50 μM
[3] = MV4-11, 72 h, MV4-11, 72 hours culture, ATPlite, GI50 per method
[4] = MOLM-13, 72 h, Molm-13, 72 hours culture, ATPlite, GI50 per method

| SMILES | IC50 [1, 2] [nM] | IC50 (MV4-11 cells; [3]) [nM] | IC50 (Molm-13 cells; [4]) [nM] | IC50 ([1]; FLT3 (WT)) [nM] | IC50 (MV4-11 cells; MV4-11, MV4-11 cell) [nM] | IC50 (Molm-13 cells; MOLM-13, MOLM13 cell) [nM] |
| --- | --- | --- | --- | --- | --- | --- |
| CCCNc1nc(NC(=O)Nc2ccncc2)ncc1C(=O)Nc1cccc(NC(=O)[C@H](C)NC(=O)/C=C/CN(C)C)c1 [Compound 6-15] | < 10 | 100 to 1000 | 100 to 1000 |  |  |  |
| COCCCNc1nc(Nc2ccc3[nH]ncc3c2)ncc1C#CCCCNC(=O)[C@@H]1CCCN1C(=O)/C=C/CN(C)C [Compound 10-68, (S,E)-N-(5-(2-((1H-Indazol-5-yl)amino)-4-((3-methoxypropyl)amino)pyrimidin-5-yl)-4-pentyn-1-yl)-1-(4-(dimethylamino)-2-butenoyl)pyrrolidine-2-carboxamide] | < 10 | < 10 | < 10 |  |  |  |
| C=CC(=O)N(C)CC(=O)NCCCNC(=O)c1cnc(Nc2ccc3cnccc3c2)nc1NCCC [Compound 6-6] | < 10 | < 10 | < 10 |  |  |  |
| CCCNc1nc(Nc2cccc(-n3cccn3)c2)ncc1C#CCCCNC(=O)[C@H](C)N(C)C(=O)/C=C/CN(C)C [Compound 22-18] |  |  |  | < 10 | < 10 | < 10 |
| CCCNc1nc(Nc2cccc(F)c2)ncc1C#CCCCNC(=O)[C@H](C(C)C)N(C)C(=O)/C=C/CN(C)C [Compound 7-10] | < 10 | 10 to 100 | 10 to 100 |  |  |  |
| COCCCNc1nc(Nc2cccc(F)c2)ncc1C#CCCCNC(=O)[C@H](C)N(C)C(=O)/C=C/CN(C)C [Compound 10-1, (S,E)-4-(dimethylamino)-N-(1-((5-(2-((3-fluorophenyl)amino)-4-((3-methoxypropyl)amino)pyrimidin-5-yl)-4-pentyn-1-yl)amino)-1-oxopropan-2-yl)-N-methyl-2-butenamide] | < 10 | < 10 | 10 to 100 |  |  |  |
| CCCNc1nc(Nc2ccc(C#N)cc2)ncc1/C=C\CNC(=O)CCCNC(=O)/C=C/CN(C)C [Compound 7-96] | 10 to 100 | 100 to 1000 | > 1000 |  |  |  |
| C[C@@H](C(=O)NCCCC#Cc1cnc(Nc2ccc3cnn(C)c3c2)nc1NC1CC1)N(C)C(=O)/C=C/CN(C)C [Compound 10-58] | < 10 | < 10 | < 10 |  |  |  |
| CCCNc1nc(Nc2ccc3cnn(C)c3c2)ncc1C#CCCCNC(=O)[C@H](C)N(C)C(=O)/C=C/CN(C)C [Compound 21-9] | < 10 | < 10 | < 10 |  |  |  |
| CCCNc1nc(Nc2ccnc(OC)c2)ncc1C#CCCCNC(=O)[C@@H]1C[C@H](O)CN1C(=O)/C=C/CN(C)C [Compound 9-36] | < 10 | < 10 | < 10 |  |  |  |
| COCCNc1nc(Nc2ccc(F)cc2)ncc1C#C[C@@H]1CCC[C@H](NC(=O)[C@H](C)N(C)C(=O)/C=C/CN(C)C)C1 [Compound 22-37] |  |  |  | < 10 | < 10 | < 10 |
| CCCNc1nc(Nc2nnc(C)s2)ncc1C#CCCCNC(=O)[C@H](C)N(C)C(=O)/C=C/CN(C)C [Compound 9-40] | 10 to 100 | 10 to 100 | 10 to 100 |  |  |  |
| COCCCNc1nc(Nc2ccc3cnn(C)c3c2)ncc1C#CCCCNC(=O)[C@H](C)N(C)C(=O)/C=C/CN(C)C [Compound 10-59] | < 10 | < 10 | < 10 |  |  |  |
| CCCNc1nc(Nc2ccc(C(N)=O)cc2)ncc1C(=O)Nc1cccc(NC2CCCN(C(=O)/C=C/CN(C)C)C2)c1 (stereo not shown) [Compound 3-19] | < 10 | 10 to 100 | 100 to 1000 |  |  |  |
| CCCNc1nc(Nc2ccc(C(N)=O)cc2)ncc1C(=O)Nc1cccc(NC(=O)[C@H](C)N(C)C(=O)/C=C/CN2CCNCC2)c1 [Compound 4-1, (S,E)-2-((4-carbamoylphenyl)amino)-N-(3-(2-(N-methyl-4-(piperazin-1-yl)-2-butenamido)propanamido)phenyl)-4-(propylamino)pyrimidine-5-carboxamide] | < 10 | 10 to 100 | 10 to 100 |  |  |  |
| CNc1ncc(C#C[C@H]2C[C@@H](NC(=O)[C@H](C)N(C)C(=O)/C=C/CN(C)C)C2)c(Nc2ccc(OC)nc2)n1 [Compound 13-22] | < 10 | < 10 | < 10 |  |  |  |

| SMILES | IC50 [1, 2] [nM] | IC50 (MV4-11 cells; [3]) [nM] | IC50 (Molm-13 cells; [4]) [nM] | IC50 ([1]; FLT3 (WT)) [nM] | IC50 (MV4-11 cells; MV4-11, MV4-11 cell) [nM] | IC50 (Molm-13 cells; MOLM-13, MOLM13 cell) [nM] |
| --- | --- | --- | --- | --- | --- | --- |
| Cc1ccc(Nc2nc(Nc3ccc(C#N)cc3)ncc2C#CCCCNC(=O)[C@H](C)N(C)C(=O)/C=C/CN(C)C)cc1 [Compound 10-23] | < 10 | < 10 | < 10 |  |  |  |
| CCCNc1nc(Nc2ccc(C(N)=O)cc2)ncc1C#CCCCNC(CCOC)(CCOC)CNC(=O)/C=C/CN(C)C [Compound 8-13] | < 10 | 10 to 100 | 10 to 100 |  |  |  |
| CCCNc1nc(Nc2ccc3cn(C)nc3c2)ncc1C#CCCCNC(=O)[C@H](C)N(C)C(=O)/C=C/CN(C)C [Compound 21-10] | < 10 | 10 to 100 | 10 to 100 |  |  |  |
| CCCNc1nc(Nc2ccc(Cn3ccnn3)cc2)ncc1C#CCCCNC(=O)CN(C)C(=O)/C=C/CN(C)C [Compound 12-12] | 10 to 100 | 10 to 100 | < 10 |  |  |  |
| CCCNc1nc(Nc2ccc(C(N)=O)cc2)ncc1C(=O)NCCCNC(=O)[C@H](C)NC(=O)/C=C/CN(C)C [Compound 5-4] | < 10 | 100 to 1000 | 100 to 1000 |  |  |  |
| CN(C)C/C=C/C(=O)N1CCC[C@H]1C(=O)N[C@H]1C[C@@H](C#Cc2cnc(Nc3cccc(F)c3)nc2NC2CC2)C1 [Compound 15-11] | < 10 | < 10 | < 10 |  |  |  |
| CC(C)CNc1nc(Nc2ccc(C#N)cc2)ncc1C#CCCCNC(=O)[C@H](C)N(C)C(=O)/C=C/CN(C)C [Compound 10-24] | < 10 | < 10 | < 10 |  |  |  |
| COCCCNc1nc(Nc2ccc3[nH]ncc3c2)ncc1C#CCCCNC(=O)[C@H](C)N(C)C(=O)/C=C/CN(C)C [Compound 10-62] | < 10 | < 10 | < 10 |  |  |  |
| CCCN(CCC)c1nc(Nc2cccc(F)c2)ncc1C#CCCCNC(=O)[C@H](C)N(C)C(=O)/C=C/CN(C)C [Compound 10-10] | < 10 | < 10 | < 10 |  |  |  |
| CCCNc1nc(Nc2ccc(C#N)cc2)ncc1/C=C\CNC(=O)CCNC(=O)/C=C/CN(C)C [Compound 7-95] | 10 to 100 | > 1000 | > 1000 |  |  |  |
| CCCN(C)c1nc(Nc2ccc(C(=O)NC)cc2)ncc1C#CCCCNC(=O)[C@H](C)N(C)C(=O)/C=C/CN(C)C [Compound 9-9] | < 10 | < 10 | < 10 |  |  |  |
| CCCNc1nc(Nc2ccc(C(N)=O)cc2)ncc1C(=O)NCCCNC1CCCC[C@@H]1NC(=O)/C=C/CN(C)C (stereo partly shown) [Compound 3-25] |  | 10 to 100 | 100 to 1000 |  |  |  |
| CCCNc1nc(Nc2ccc(C#N)cc2)ncc1C#CCCCNC(=O)[C@H](C)N(C)C(=O)/C=C/CN(C)C [Compound 7-5, (S,E)-N-(1-((5-(2-((4-Cyanophenyl)amino)-4-(propylamino)pyrimidin-5-yl)-4-pentyn-1-yl)amino)-1-oxopropan-2-yl)-4-(dimethylamino)-N-methyl-2-butenamide] |  | < 10 | < 10 |  |  |  |
| CCCNc1nc(Nc2ccc(C#N)cc2)ncc1C#CCCCNC(=O)[C@@H](C)N(C)C(=O)/C=C/CN(C)C [Compound 7-32] |  | < 10 | < 10 |  |  |  |
| CCCNc1nc(Nc2ccc(C(N)=O)cc2)ncc1C(=O)NCCCN[C@@H]1CCCC[C@@H]1NC(=O)/C=C/CN(C)C [Compound 3-25] | < 10 |  |  |  |  |  |
